The source of these data is ChEMBL document CHEMBL1201862, “PubChem BioAssay data set” (2004).

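Interpolation was linear, between the two tested concentrations surrounding the appropriate level; five concentrations were tested over 48 hours in 96-well plates. GI50 marks 50% less growth.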 Activity calls are given as the source filed them. Cut-off read from the data, not from the text of the source: active = GI50 up to about 1.1 µM and inactive = higher. Some results are limits rather than exact numbers.

Some test systems named below: OVCAR-3; DU-145; A549; U-251; ACHN; KM12; M14; 786-0; SF-268; MDA-MB-435; SK-OV-3; NCI/ADR-RES; HOP-92; MOLT-4; COLO 205; SK-MEL-2; A498; SF-295; OVCAR-8; IGROV-1.
Common to all, as to assay: DTP human tumour cell line panel, 48 h

For the molecule `COc1ccc2cc(CNCCOCCOCCNCc3ccc4cc(OC)ccc4c3)ccc2c1`, the GI50 was 1.73 µM (inactive) with OVCAR-3; 1.6 µM (inactive) in the assay with DU-145; 1.58 µM (inactive) in the assay on A549; 1.31 µM (inactive) with U-251; 1.6 µM (inactive) in the assay with ACHN; 0.881 µM (active) with KM12. Besides, the GI50 with M14 is 0.26 µM (active); with 786-0, 0.953 µM (active); in the assay with SF-268, 1.42 µM (inactive); in the assay with MDA-MB-435, 0.494 µM (active); with SK-OV-3, 1.79 µM (inactive); with NCI/ADR-RES, 1.48 µM (inactive). Further, the GI50 in the assay on HOP-92 was 0.593 µM (active); with MOLT-4, 0.402 µM (active); in the assay on COLO 205, 0.162 µM (active); in the assay with SK-MEL-2 it was 1.53 µM (inactive); in the assay on A498, 1.68 µM (inactive); in the assay on SF-295 it was 1.17 µM (inactive). Further, the figures for the GI50 in the assay with OVCAR-8 and with IGROV-1 were 1.49 µM (inactive) and 1.63 µM (inactive), respectively.

As for `O=C(Nc1ccccc1)c1cc2cc(CCl)ccc2oc1=O`, the GI50 with OVCAR-3 was > 100 µM (inactive); with DU-145, > 100 µM (inactive); in the assay on A549, 99.3 µM (inactive); with U-251 it was 47 µM (inactive); with ACHN, 17 µM (inactive); with KM12, > 100 µM (inactive). In addition, the GI50 was > 100 µM (inactive) with M14; 48.8 µM (inactive) in the assay with 786-0; 47 µM (inactive) with SF-268; > 100 µM (inactive) in the assay with MDA-MB-435; > 100 µM (inactive) in the assay on SK-OV-3; > 100 µM (inactive) with NCI/ADR-RES. The GI50 in the assay on HOP-92 was > 100 µM (inactive); in the assay with MOLT-4, > 100 µM (inactive); in the assay on COLO 205, > 100 µM (inactive); in the assay on SK-MEL-2, 4.8 µM (inactive); in the assay on A498, 13 µM (inactive); in the assay with SF-295 it was 45.5 µM (inactive). Besides, the GI50 in the assay on OVCAR-8 and in the assay on IGROV-1 was > 100 µM (inactive) throughout.

On to `CCCCCCCCOC(=O)c1cc([N+](=O)[O-])c(Sc2[nH]cnc3ncnc2-3)c([N+](=O)[O-])c1`, for which the GI50 with OVCAR-3 is 1.01 µM (active); in the assay with DU-145, 1.27 µM (inactive); in the assay on A549 it was 7.98 µM (inactive); in the assay on U-251, 3.44 µM (inactive); in the assay on ACHN, 2.92 µM (inactive); in the assay with KM12 it was 3.45 µM (inactive). Besides, the GI50 in the assay with M14 was 0.56 µM (active); in the assay with 786-0, 1.47 µM (inactive); with SF-268 it was 2.38 µM (inactive); with MDA-MB-435, 2.06 µM (inactive); in the assay on SK-OV-3 it was 0.695 µM (active); with NCI/ADR-RES, 3 µM (inactive). Further, the GI50 was 0.748 µM (active) in the assay with HOP-92; 0.857 µM (active) with MOLT-4; 1.6 µM (inactive) with COLO 205; 4.53 µM (inactive) with SK-MEL-2; 17 µM (inactive) in the assay on A498; 3.12 µM (inactive) in the assay on SF-295. The GI50 in the assay on OVCAR-8 was 2.18 µM (inactive); in the assay on IGROV-1 it was 4.07 µM (inactive).

For the molecule `O=C1CC2(CCC(O)(c3ccc(Cl)cc3)C(C(=O)c3ccc(Cl)cc3)C2)C(=O)c2ccccc2N1` (stereo not given), the GI50 in the assay on OVCAR-3 was > 100 µM (inactive); with DU-145 it was 6.82 µM (inactive); in the assay on A549 it was 12.5 µM (inactive); with U-251, 2.6 µM (inactive); in the assay with ACHN it was 3.64 µM (inactive); with KM12, > 100 µM (inactive). Further, the GI50 in the assay on M14 is 18.2 µM (inactive); with 786-0 it was 1.34 µM (inactive); in the assay on SF-268, 3.1 µM (inactive); with MDA-MB-435 it was > 29.9 µM (inactive); with SK-OV-3, 12.4 µM (inactive); with NCI/ADR-RES it was 11.6 µM (inactive). The GI50 was 0.794 µM (active) in the assay on HOP-92; 2.12 µM (inactive) in the assay with MOLT-4; 5.74 µM (inactive) in the assay with COLO 205; > 100 µM (inactive) with SK-MEL-2; 17.3 µM (inactive) with A498; 6.47 µM (inactive) with SF-295. The GI50 in the assay on OVCAR-8 is 14.7 µM (inactive); in the assay with IGROV-1, > 26.3 µM (inactive).

On to `Cn1c(=O)c2c(nc3n2CC(C(=O)O)N3)n(C)c1=O` (stereo not given), for which the GI50 with OVCAR-3, with DU-145, in the assay on A549, with U-251, in the assay with ACHN and in the assay with KM12 was > 100 µM (inactive) throughout. Further, the GI50 in the assay on M14, in the assay with 786-0, in the assay on SF-268, in the assay on MDA-MB-435, in the assay with SK-OV-3 and in the assay with NCI/ADR-RES was > 100 µM (inactive) each time. The GI50 in the assay on HOP-92 was > 100 µM (inactive); with MOLT-4, 0.036 µM (active); in the assay with COLO 205, > 100 µM (inactive); with SK-MEL-2, > 100 µM (inactive); in the assay with A498, > 100 µM (inactive); in the assay with SF-295, > 100 µM (inactive). Also, the GI50 in the assay on OVCAR-8 and in the assay on IGROV-1 was > 100 µM (inactive) in each case.
